Values of other authors in US8507652B2, “Pharmaceutical composition, dressing and method for treating skin lesion, intermediate composition and process for preparing said dressing, and use of cerium salt associated with a collagen matrix” (priority 2008, dated 2013).

Assays:
interleucin-6 = settings: lesions treated with cerium nitrate
39 bacteria species = 39 bacteria species studied, in vitro
TNF-[…] = settings: lesions treated with cerium nitrate

For `O=[N+]([O-])[O-].O=[N+]([O-])[O-].O=[N+]([O-])[O-].[Ce+3]` [cerium nitrate], the interleucin-6 level (interleucin-6) is listed as “increase”, the concentration inhibiting growth (39 bacteria species) is listed as ~0.0004 M and the “TNF-[…] level” value (TNF-[…]) is listed as “reduction”.
